From ChEMBL document CHEMBL1129179, “Antimicrobial evaluation of 3,1-benzoxazin-4-ones, 3,1-benzothiazin-4-ones, 4-alkoxyquinazolin-2-carbonitriles and N-arylimino-1,2,3-dithiazoles” (1996)
Converted amounts (≈) assume the structure as drawn. The source made the active and inactive calls. No cut-off for these calls is given here.

Assays:
Pichia kudriavzevii [1] = assay: Minimum fungicidal concentration required for antifungal activity against Issatchenkia orientalis DSM 6128 strain; format: functional
Pichia kudriavzevii [2] = assay: Minimum inhibitory concentration required for antifungal activity against Issatchenkia orientalis DSM 6128 strain; format: functional
Candida albicans [3] = assay: Minimum fungicidal concentration required for antifungal activity against Candida albicans ATCC 10231 strain; format: functional
[4] = Ratio of MFC99/MIC for antifungal activity against Candida albicans ATCC 10231 strain was determined; format: functional
Candida albicans [5] = assay: Minimum inhibitory concentration required for antifungal activity against Candida albicans ATCC 10231 strain; format: functional
Nakaseomyces glabratus [6] = assay: Minimum fungicidal concentration required for antifungal activity against Candida glabrata DSM 6425 strain; format: functional
Candida tropicalis [7] = assay: Minimum fungicidal concentration required for antifungal activity against Candida tropicalis DSM 1346 strain; format: functional
[8] = Ratio of MFC99/MIC for antifungal activity against Cryptococcus neoformans DSM 70219 strain was determined; format: functional
Cryptococcus neoformans [9] = assay: Minimum inhibitory concentration required for antifungal activity against Cryptococcus neoformans DSM 70219 strain; format: functional
[10] = Ratio of MFC99/MIC for antifungal activity against Issatchenkia orientalis DSM 6128 strain was determined; format: functional
[11] = Ratio of MFC99/MIC for antifungal activity against Candida glabrata DSM 6425 strain was determined; format: functional
Cryptococcus neoformans [12] = assay: Minimum fungicidal concentration required for antifungal activity against Cryptococcus neoformans DSM 70219 strain; format: functional
[13] = Ratio of MFC99/MIC for antifungal activity against Candida tropicalis DSM 1346 strain was determined; format: functional
Candida tropicalis [14] = assay: Minimum inhibitory concentration required for antifungal activity against Candida tropicalis DSM 1346 strain; format: functional
Nakaseomyces glabratus [15] = assay: Minimum inhibitory concentration required for antifungal activity against Candida glabrata DSM 6425 strain; format: functional
Staphylococcus aureus = assay: Antibacterial activity against gram-positive bacteria Staphylococcus aureus ATCC 9144; No effect; format: functional, organism-based
Salmonella enterica = assay: Antibacterial activity against gram-negative bacteria S. choleraesuis; No effect; format: functional, organism-based
Proteus mirabilis = assay: Antibacterial activity against gram-negative bacteria Proteus mirabilis CIP 1031811; No effect; format: functional, organism-based
Listeria monocytogenes = assay: Antibacterial activity against gram-positive bacteria Listeria monocytogenes CIP 82110T; No effect; format: functional, organism-based
Pseudomonas aeruginosa = assay: Antibacterial activity against gram-negative bacteria Pseudomonas aeruginosa ATCC 27853; No effect; format: functional, organism-based
Streptococcus pyogenes = assay: Antibacterial activity against gram-positive bacteria Streptococcus pyogenes ATCC 19165; No effect; format: functional, organism-based
Salmonella typhimurium = assay: Antibacterial activity against gram-negative bacteria Salmonella ser. Typhimurium; No effect; format: functional, organism-based; settings: Salmonella enterica subsp. enterica serovar Typhimurium
Klebsiella pneumoniae = assay: Antibacterial activity against gram-negative bacteria K. pneumoniae; No effect; format: functional, organism-based
Escherichia coli = assay: Antibacterial activity against gram-negative bacteria Escherichia coli ATCC 25922; No effect; format: functional, organism-based
Enterococcus faecalis = assay: Antibacterial activity against gram-positive bacteria Enterococcus faecalis ATCC 29212; No effect; format: functional, organism-based

| SMILES | MFC99 (Pichia kudriavzevii [1]) | MIC (Pichia kudriavzevii [2]) | MFC99 (Candida albicans [3]) | MIC (Candida albicans [5]) | MFC99 (Nakaseomyces glabratus [6]) | MFC99 (Candida tropicalis [7]) | Ratio [8] | MIC (Cryptococcus neoformans [9]) | Ratio [11] | MFC99 (Cryptococcus neoformans [12]) | Activity (Staphylococcus aureus) | Activity (Salmonella enterica) | Activity (Proteus mirabilis) | Activity (Listeria monocytogenes) | Activity (Pseudomonas aeruginosa) | Activity (Streptococcus pyogenes) | Activity (Salmonella typhimurium) | Activity (Klebsiella pneumoniae) | Activity (Escherichia coli) | Activity (Enterococcus faecalis) | also measured |
| --- | --- | --- | --- | --- | --- | --- | --- | --- | --- | --- | --- | --- | --- | --- | --- | --- | --- | --- | --- | --- | --- |
| COc1ccc(/N=c2\ssnc2Cl)cc1 | 16 µg/mL (≈ 61.8 µM) | 16 µg/mL (≈ 61.8 µM) | 16 µg/mL (≈ 61.8 µM) | 16 µg/mL (≈ 61.8 µM) | 16 µg/mL (≈ 61.8 µM) | 16 µg/mL (≈ 61.8 µM) | 1 | 8 µg/mL (≈ 30.9 µM) | 1 | 8 µg/mL (≈ 30.9 µM) | – | – | – | – | – | – | – | – | – | – | Ratio [4]: 1; Ratio [10]: 1; Ratio [13]: 1; MIC (Candida tropicalis [14]): 16 µg/mL (≈ 61.8 µM); MIC (Nakaseomyces glabratus [15]): 16 µg/mL (≈ 61.8 µM) |
| CCCCOc1nc(C#N)nc2cc(OC)c(OC)cc12 | – | – | – | – | – | – | – | – | – | – | inactive | inactive | inactive | inactive | inactive | inactive | inactive | inactive | inactive | inactive | – |
| OC(Cn1cncn1)(Cn1cncn1)c1ccc(F)cc1F [FLUCONAZOLE] | 64 µg/mL (≈ 209 µM) | 16 µg/mL (≈ 52.2 µM) | >128 µg/mL | 2 µg/mL (≈ 6.53 µM) | >128 µg/mL | >128 µg/mL | >32 | 4 µg/mL (≈ 13.1 µM) | >32 | >128 µg/mL | – | – | – | – | – | – | – | – | – | – | Ratio [4]: >64; Ratio [10]: 4; Ratio [13]: >32; MIC (Candida tropicalis [14]): 4 µg/mL (≈ 13.1 µM); MIC (Nakaseomyces glabratus [15]): 4 µg/mL (≈ 13.1 µM) |
| COc1cc2nc(C#N)oc(=O)c2cc1OC | – | – | – | – | – | – | – | – | – | – | inactive | inactive | inactive | inactive | inactive | inactive | inactive | inactive | inactive | inactive | – |
| N#Cc1nc2ccccc2c(=O)s1 | – | – | – | – | – | – | – | – | – | – | inactive | inactive | inactive | inactive | inactive | inactive | inactive | inactive | inactive | inactive | – |
| Clc1nss/c1=N\c1ccc2c(c1)OCCO2 | >48 µg/mL | 48 µg/mL (≈ 167 µM) | 48 µg/mL (≈ 167 µM) | 32 µg/mL (≈ 112 µM) | 48 µg/mL (≈ 167 µM) | >48 µg/mL | 1 | 16 µg/mL (≈ 55.8 µM) | 3 | 16 µg/mL (≈ 55.8 µM) | – | – | – | – | – | – | – | – | – | – | Ratio [4]: 1.5; MIC (Candida tropicalis [14]): 48 µg/mL (≈ 167 µM); MIC (Nakaseomyces glabratus [15]): 16 µg/mL (≈ 55.8 µM) |
| COC(=O)c1cc(OC)c(OC)cc1/N=c1\ssnc1Cl | 48 µg/mL (≈ 138 µM) | 32 µg/mL (≈ 92.3 µM) | 48 µg/mL (≈ 138 µM) | 32 µg/mL (≈ 92.3 µM) | 48 µg/mL (≈ 138 µM) | >48 µg/mL | 1.5 | 32 µg/mL (≈ 92.3 µM) | 3 | 48 µg/mL (≈ 138 µM) | – | – | – | – | – | – | – | – | – | – | Ratio [4]: 1.5; Ratio [10]: 1.5; MIC (Candida tropicalis [14]): 48 µg/mL (≈ 138 µM); MIC (Nakaseomyces glabratus [15]): 16 µg/mL (≈ 46.1 µM) |
| COc1cc2nc(C#N)sc(=O)c2cc1OC | – | – | – | – | – | – | – | – | – | – | inactive | inactive | inactive | inactive | inactive | inactive | inactive | inactive | inactive | inactive | – |
| COc1ccc(/N=c2\ssnc2Cl)cc1OC | 32 µg/mL (≈ 111 µM) | 16 µg/mL (≈ 55.4 µM) | 16 µg/mL (≈ 55.4 µM) | 16 µg/mL (≈ 55.4 µM) | 16 µg/mL (≈ 55.4 µM) | 32 µg/mL (≈ 111 µM) | 2 | 16 µg/mL (≈ 55.4 µM) | 1 | 32 µg/mL (≈ 111 µM) | – | – | – | – | – | – | – | – | – | – | Ratio [4]: 1; Ratio [10]: 2; Ratio [13]: 2; MIC (Candida tropicalis [14]): 16 µg/mL (≈ 55.4 µM); MIC (Nakaseomyces glabratus [15]): 16 µg/mL (≈ 55.4 µM) |
| Clc1nss/c1=N\c1ccccc1 | 16 µg/mL (≈ 70 µM) | 16 µg/mL (≈ 70 µM) | 16 µg/mL (≈ 70 µM) | 16 µg/mL (≈ 70 µM) | 16 µg/mL (≈ 70 µM) | 16 µg/mL (≈ 70 µM) | 1 | 8 µg/mL (≈ 35 µM) | 1 | 8 µg/mL (≈ 35 µM) | – | – | – | – | – | – | – | – | – | – | Ratio [4]: 1; Ratio [10]: 1; Ratio [13]: 1; MIC (Candida tropicalis [14]): 16 µg/mL (≈ 70 µM); MIC (Nakaseomyces glabratus [15]): 16 µg/mL (≈ 70 µM) |
| CCSc1nc(C#N)nc2cc(OC)c(OC)cc12 | – | – | – | – | – | – | – | – | – | – | inactive | inactive | inactive | inactive | inactive | inactive | inactive | inactive | inactive | inactive | – |
| COc1cc2nc(C#N)nc(OC(C)C)c2cc1OC | – | – | – | – | – | – | – | – | – | – | inactive | inactive | inactive | inactive | inactive | inactive | inactive | inactive | inactive | inactive | – |
| COc1cc(C#N)c(/N=c2\ssnc2Cl)cc1OC | 48 µg/mL (≈ 153 µM) | 32 µg/mL (≈ 102 µM) | 32 µg/mL (≈ 102 µM) | 32 µg/mL (≈ 102 µM) | 48 µg/mL (≈ 153 µM) | >48 µg/mL | 1 | 32 µg/mL (≈ 102 µM) | 1.5 | 32 µg/mL (≈ 102 µM) | – | – | – | – | – | – | – | – | – | – | Ratio [4]: 1; Ratio [10]: 1.5; MIC (Candida tropicalis [14]): 48 µg/mL (≈ 153 µM); MIC (Nakaseomyces glabratus [15]): 32 µg/mL (≈ 102 µM) |
| COc1cc2nc(C#N)nc(OC)c2cc1OC | – | – | – | – | – | – | – | – | – | – | inactive | inactive | inactive | inactive | inactive | inactive | inactive | inactive | inactive | inactive | – |
| Nc1nc(=O)[nH]cc1F [FLUCYTOSINE] | 64 µg/mL (≈ 496 µM) | 16 µg/mL (≈ 124 µM) | 4 µg/mL (≈ 31 µM) | 0.13 µg/mL (≈ 1.01 µM) | 0.25 µg/mL (≈ 1.94 µM) | 0.25 µg/mL (≈ 1.94 µM) | >64 | 2 µg/mL (≈ 15.5 µM) | 5 | >128 µg/mL | – | – | – | – | – | – | – | – | – | – | Ratio [10]: 4; Ratio [13]: 5; MIC (Candida tropicalis [14]): 0.1 µg/mL (≈ 0.775 µM); MIC (Nakaseomyces glabratus [15]): 0.05 µg/mL (≈ 0.387 µM) |
| COc1ccccc1/N=c1\ssnc1Cl | 16 µg/mL (≈ 61.8 µM) | 16 µg/mL (≈ 61.8 µM) | 16 µg/mL (≈ 61.8 µM) | 16 µg/mL (≈ 61.8 µM) | 16 µg/mL (≈ 61.8 µM) | 16 µg/mL (≈ 61.8 µM) | 2 | 8 µg/mL (≈ 30.9 µM) | 1 | 16 µg/mL (≈ 61.8 µM) | – | – | – | – | – | – | – | – | – | – | Ratio [4]: 1; Ratio [10]: 1; Ratio [13]: 1; MIC (Candida tropicalis [14]): 16 µg/mL (≈ 61.8 µM); MIC (Nakaseomyces glabratus [15]): 16 µg/mL (≈ 61.8 µM) |
| CCOc1nc(C#N)nc2cc(OC)c(OC)cc12 | – | – | – | – | – | – | – | – | – | – | inactive | inactive | inactive | inactive | inactive | inactive | inactive | inactive | inactive | inactive | – |
| N#Cc1nc2cc(Cl)ccc2c(=O)s1 | – | – | – | – | – | – | – | – | – | – | inactive | inactive | inactive | inactive | inactive | inactive | inactive | inactive | inactive | inactive | – |
| N#Cc1nc2ccccc2c(=O)o1 | – | – | – | – | – | – | – | – | – | – | inactive | inactive | inactive | inactive | inactive | inactive | inactive | inactive | inactive | inactive | – |
| CCOc1nc(C#N)nc2ccccc12 | – | – | – | – | – | – | – | – | – | – | inactive | inactive | inactive | inactive | inactive | inactive | inactive | inactive | inactive | inactive | – |
| COc1nc(C#N)nc2ccccc12 | – | – | – | – | – | – | – | – | – | – | inactive | inactive | inactive | inactive | inactive | inactive | inactive | inactive | inactive | inactive | – |
| N#Cc1nc2cc(Cl)ccc2c(=O)o1 | – | – | – | – | – | – | – | – | – | – | inactive | inactive | inactive | inactive | inactive | inactive | inactive | inactive | inactive | inactive | – |
